{"source": "ChEMBL document CHEMBL3091403", "about": "“Desmethyl Macrolides: Synthesis and Evaluation of 4,8,10-Tridesmethyl Cethromycin” (2013)", "format_in_all_cases": "functional", "key": {"Staphylococcus aureus [1]": {"test_system": "Staphylococcus aureus", "test": "Antibacterial activity against Staphylococcus aureus UCN14 harboring ribosomal A2058U mutant"}, "Escherichia coli [2]": {"test_system": "Escherichia coli", "test": "Antibacterial activity against wild-type Escherichia coli DK/pKK3535"}, "Escherichia coli [3]": {"test_system": "Escherichia coli", "test": "Antibacterial activity against Escherichia coli DK/2058G harboring ribosomal A2058G mutant"}, "Escherichia coli [4]": {"test_system": "Escherichia coli", "test": "Antibacterial activity against Escherichia coli SQ171/2058G harboring ribosomal A2058G mutant"}, "Staphylococcus aureus [5]": {"test_system": "Staphylococcus aureus", "test": "Antibacterial activity against Staphylococcus aureus ATCC 33591 harboring ribosomal ermA mutant"}}, "data": [{"compound": "CC[C@H]1OC(=O)[C@H](C)C(=O)C[C@@H](O[C@@H]2O[C@H](C)C[C@H](N(C)C)[C@H]2O)[C@](C)(OC/C=C/c2cnc3ccccc3c2)CCC(=O)C[C@H]2NC(=O)O[C@@]21C", "values": [{"measurement": "MIC", "setting": "Staphylococcus aureus [1]", "value": "> 256", "unit": "µg/mL"}, {"measurement": "MIC", "setting": "Escherichia coli [2]", "value": 2, "unit": "µg/mL"}, {"measurement": "MIC", "setting": "Escherichia coli [3]", "value": 1, "unit": "µg/mL"}, {"measurement": "MIC", "setting": "Escherichia coli [4]", "value": "> 256", "unit": "µg/mL"}, {"measurement": "MIC", "setting": "Staphylococcus aureus [5]", "value": "> 64", "unit": "µg/mL"}]}]}
